Where a name gives a salt, the structure may show the parent alone. Read-outs that look alike come from different tables or passages of the source.
Tests used:
c-Myc/Max/Ebox DNA = target: T1, c-Myc/Max/Ebox DNA (Homo sapiens, UniProt P01106); test: c-Myc/Max/Ebox DNA AlphaScreen Assay; type: binding; details: Table 2, compounds of FIG. 1, calculated IC50 class
T1 construct: his6 (cleaved yes)
How it was run: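 Compounds were preincubated with free c-Myc (20 nM), biotinylated single-Ebox DNA (10 nM) and Ni acceptor beads before his6-Max (5 nM) and streptavidin donor beads were added. Buffer was 50 mM HEPES pH 8.0, 150 mM NaCl, BSA, Tween20, glycogen and DTT, with DMSO ≤2%. After 2 h incubation, AlphaScreen signal was read at 680 nm excitation and 520–620 nm emission.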

[1] = test system: human small lung cancer cell line H2171; test: Cell Viability Assay (ATPlite); type: cell-based; details: Table 2, compounds of FIG. 1, H2171 cells, three days, ATPlite, calculated IC50 class, read-out: H2171 Activity
How it was run: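 Viability readout was ATPlite luminescence, taken after 3 days' incubation at 37° C. Human SCLC H2171 cells (20,000 cells/mL) received compound right after plating, as a 10-point dose response.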

T1 sequence (P01106 whole entry): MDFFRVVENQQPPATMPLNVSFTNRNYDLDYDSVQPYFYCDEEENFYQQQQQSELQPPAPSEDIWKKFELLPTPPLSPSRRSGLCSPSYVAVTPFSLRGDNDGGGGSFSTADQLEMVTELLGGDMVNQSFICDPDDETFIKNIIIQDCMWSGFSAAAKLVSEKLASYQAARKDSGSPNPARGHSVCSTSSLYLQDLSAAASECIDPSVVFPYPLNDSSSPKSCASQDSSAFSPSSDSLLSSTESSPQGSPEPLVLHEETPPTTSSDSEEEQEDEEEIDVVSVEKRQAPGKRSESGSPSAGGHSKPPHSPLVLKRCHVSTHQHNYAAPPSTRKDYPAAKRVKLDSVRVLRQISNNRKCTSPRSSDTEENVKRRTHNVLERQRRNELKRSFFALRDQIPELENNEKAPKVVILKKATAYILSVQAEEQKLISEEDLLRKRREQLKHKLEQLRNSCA

Row | Structure (SMILES) | IC50 (c-Myc/Max/Ebox DNA) [nM] | IC50 [1] [nM] | IC50 ([1]; Homo sapiens, NCI-H2171, 72 h) [nM] | IC50 (c-Myc/Max/Ebox DNA; listed as 116) [nM] | IC50 ([1]; listed as 116) [nM]
1 | COCCNCCC(=O)Nc1sc2c(c1-c1nc3cc(-c4cnn(C)c4)ccc3s1)CC(C)NC2C (single isomer, unassigned) [Compound 567, N-(5,7-Dimethyl-3-(5-(1-methyl-1H-pyrazol-4-yl)benzo[d]thiazol-2-yl)-4,5,6,7-tetrahydrothieno[2,3-c]pyridin-2-yl)-3-((2-methoxyethyl)amino)propanamide] | 1000 to 10000 | < 300 |  |  | 
2 | CC(C)NCCC(=O)Nc1sc2c(c1-c1nc3cc(C(=O)Nc4cccnc4)ccc3s1)CCNC2 [Compound 510, 2-(2-(3-(Isopropylamino)propanamido)-4,5,6,7-tetrahydrothieno[2,3-c]pyridin-3-yl)-N-(pyridin-3-yl)benzo[d]thiazole-5-carboxamide] | 300 to 1000 |  | < 300 |  | 
3 | CC(C)NCCC(=O)Nc1sc2c(c1-c1nc3c(-c4ccncc4)cccc3s1)CCNC2 [compound 535] | < 300 |  | < 300 |  | 
4 | CCC(C)NCCC(=O)Nc1sc2c(c1-c1nc3cc4c(cc3s1)OCO4)CCNC2 (stereo not shown) [Compound 555, N-(3-([1,3]Dioxolo[4′,5′:4,5]benzo[1,2-d]thiazol-6-yl)-4,5,6,7-tetrahydrothieno[2,3-c]pyridin-2-yl)-3-(sec-butylamino)propanamide] | < 300 |  | < 300 | 1000 to 10000 | 1000 to 10000
5 | CCC(C)NCCC(=O)Nc1sc2c(c1-c1nc3ccccc3s1)CCNC2 (stereo not shown) [Compound 124, N-(3-(benzo[d]thiazol-2-yl)-4,5,6,7-tetrahydrothieno[2,3-c]pyridin-2-yl)-3-(sec-butylamino)propanamide] | < 300 |  | < 300 |  | 
6 | CC[C@H](C)NCCC(=O)Nc1sc2c(c1-c1nc3cc(-c4ccncc4)ccc3s1)CCN(C1CCC1)C2 [Compound 595, (S)-3-(sec-butylamino)-N-(6-cyclobutyl-3-(5-(pyridin-4-yl)benzo[d]thiazol-2-yl)-4,5,6,7-tetrahydrothieno[2,3-c]pyridin-2-yl)propanamide] | < 300 |  | 300 to 1000 |  | 
7 | COCCNCCC(=O)Nc1sc2c(c1-c1nc3c(-n4cnc(C)c4)cccc3s1)CCNC2 [Compound 592, 3-((2-Methoxyethyl)amino)-N-(3-(4-(4-methyl-1H-imidazol-1-yl)benzo[d]thiazol-2-yl)-4,5,6,7-tetrahydrothieno[2,3-c]pyridin-2-yl)propanamide trihydrochloride] | < 300 |  | < 300 |  | 

Reference: patent publication US10787444B2, “Compounds for the modulation of myc activity” (Syros Pharmaceuticals, Inc., priority 2015, dated 2020)
